Results: PubChem BioAssay AID1902 (Broad Institute, 2009)
Calls of active or inactive are those of the source.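 Rule for the calls: active = EC50 no more than a set limit of log units above the highest dose; inactive = the rest.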

target: S. pyogenes SKKanGAS, kanamycin survival, BacTiterGlo, 6 h; assay: S. pyogenes SKKanGAS kanamycin growth inhibitors – SKKanGAS strain, luminescence, dose confirmation, streptokinase promoter inhibitor project, dose response (AID 1902);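 note: lower survival reflects blocked streptokinase promoter driving kanamycin resistance gene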

Row | SMILES | EC50
1 | CCOC(=O)C1=NN(C(=O)c2ccc(OC)cc2)C(O)(c2ccc(Cl)cc2)C1 (stereo unspecified) | 6 µM
2 | Cc1cccc(/C=N/NC(=O)c2ccc3c(c2)OCCO3)c1O | 4.39 µM
3 | O=C(O)c1cc(-c2ccc(-c3c(-c4ccc5c(c4)OCO5)noc3-c3ccsc3)cc2)nc2ccccc12 | 1.84 µM
4 | CCCCCCCCCCCC(=O)c1c(O)cccc1O | 1.58 µM
5 | CN1C(=O)/C(=C/c2ccccc2F)Sc2ccc(C(=O)N3CCCC3)cc21 | 1.06 µM
6 | Cc1c(C(=O)N2CCC(Cc3ccccc3)CC2)sc2ncnc(N3CCC(C)CC3)c12 | 6.31 µM
7 | COc1ccc(-c2cc(C3CCN(c4ncccc4[N+](=O)[O-])CC3)[nH]n2)cc1 | 5.01 µM
8 | c1ccc(-c2oc3ncnc(NCCCn4ccnc4)c3c2-c2ccccc2)cc1 | 8.92 µM
9 | Cc1nnc(SCC2=C(C(=O)O)N3C(=O)C(NC(=O)c4cc(F)c(F)cc4Cl)C3SC2)s1 (stereo unspecified) | 0.535 µM
10 | CCOC(=O)C(=NC(C)(C)C)NNc1cc(Cl)ccc1Cl | 2.9 µM
11 | COCCCn1c(=O)/c(=C\c2ccccc2OC(C)C)s/c1=C(/C#N)C(=O)Nc1ccc(C(=O)O)cc1 | 2.02 µM
12 | COc1ccc2[nH]c3c(=O)n(/N=C/c4ccc(OC)c(CN5CCCC5)c4)c(C)nc3c2c1 | 7.06 µM
13 | COc1cccc(N2C(N)=NC(N)=NC2(C)C)c1 | 0.318 µM
14 | COc1ccc2oc(C(=O)Nc3nc(-c4ccccn4)cs3)c(C)c2c1 | 1.19 µM
15 | CC(C)Oc1ccc(C(=O)Nc2nc3ccccc3[nH]2)cc1 | 1.41 µM
16 | COc1cc2ccccc2cc1C(=O)NC(=S)Nc1ccc(C(=O)O)cc1 | 4.44 µM
17 | O=Nc1c(-c2c(O)[nH]c3cc(Br)ccc23)[nH]c2ccccc12 | 2.95 µM
18 | CC(C)N1CCc2c(sc(NC(=O)c3ccc([N+](=O)[O-])o3)c2C(N)=O)C1 | 3.5 µM
19 | CCOc1ccc(/C=N/NC(=S)NC2CC3C=CC2C3)cc1 (stereo unspecified) | > 15 µM (inactive)
20 | Cc1ccc(NC(=O)c2nc[nH]c2C(=O)N[C@@H](CCCCNC(=O)OC(C)(C)C)C(=O)OC(C)(C)C)cc1 | 3.76 µM
21 | COc1ccc(C(=O)OCC(=O)Nc2nnc(-c3ccccc3)o2)cc1 | 6.54 µM
22 | CCC(NC(=O)Nc1nnc(C(F)(F)F)s1)(C(F)(F)F)C(F)(F)F | 1.42 µM

Row | SMILES | EC50
23 | CN(C)c1nc(N/N=C/c2ccccc2O)nc(Nc2ccc(F)cc2)n1 | 3.79 µM
24 | CCOC(=O)c1c(NC(=O)c2cccs2)sc(CC)c1-c1cccs1 | 13.1 µM
25 | Cc1ccc(NC(=S)NC(=O)c2ccc(F)cc2)cc1S(=O)(=O)Nc1cccc(Cl)c1 | 2.19 µM
26 | Clc1ccc2c(N/N=C/c3ccc(Br)cc3)ccnc2c1 | 3.14 µM
27 | CCC(C)c1ccccc1NS(=O)(=O)c1cnn(CC)c1 (stereo unspecified) | > 15 µM (inactive)
28 | O=C1C=C(Nc2ccccc2)c2ccccc2C1=O | 2.44 µM
29 | O=C(O)c1ccc(N2CCCCS2(=O)=O)cc1 | > 15 µM (inactive)
30 | COc1cccc(-c2cc(C(=O)NCC3CCCO3)c3cc(Br)cc(C)c3n2)c1 (stereo unspecified) | > 15 µM (inactive)
31 | COc1ccccc1CCNC(=O)C(=O)c1cn(CC(=O)N2CCCC2)c2ccccc12 | > 15 µM (inactive)
32 | COc1ccc(C(C)=O)cc1COc1cc(C)c(Cl)c(C)c1 | > 15 µM (inactive)
33 | O=C1C(=O)c2ccccc2-c2ccccc21 | 1.26 µM
34 | c1cn2c(NC3CCCCC3)c(-c3ccc(SC4CCCCC4)cc3)nc2cn1 | 1.97 µM
35 | O=C(NC(=S)NNC(=O)c1ccccc1O)c1ccccc1 | 2.35 µM
36 | Cc1cccc(C(=O)OCC(=O)Nc2nnc(-c3ccccc3)o2)c1O | 2.2 µM
37 | COc1cccc(C2C3=C(N=c4s/c(=C\c5cccc(O)c5)c(=O)n42)c2ccccc2CC3)c1OC (stereo unspecified) | 5.37 µM
38 | COCC1=C(C(=O)OC(C)OC(=O)OC(C)C)N2C(=O)[C@@H](NC(=O)/C(=N\OC)c3csc(N)n3)[C@H]2SC1 (stereo partly specified) | 0.797 µM
39 | O=C1N/C(=N\N=C\c2cccs2)SC1Cc1ccc(Cl)c(Cl)c1 (stereo unspecified) | 11.4 µM
40 | COc1ccc(Oc2nc(-c3ccccn3)nc3ccccc23)cc1 | 6.49 µM
41 | NC1CCN(c2nc3c(cc2F)c(=O)c(C(=O)O)cn3-c2ccc(F)cc2F)C1 (stereo unspecified) | 0.296 µM
42 | CCN(CC)c1ccc(NC(=O)c2c(C)noc2C)cc1 | > 15 µM (inactive)
43 | CC(C)(C)c1ccc(OCC(=O)N2CCN(c3ncccn3)CC2)cc1 | > 15 µM (inactive)
44 | O=C(c1ccccc1)c1cc2ccc(O)cc2oc1=O | 6.03 µM

Row | SMILES | EC50
45 | N#Cc1nc(-c2ccc(OCc3ccccc3Cl)cc2)oc1NCCCn1ccnc1 | 3.27 µM
46 | Cc1ccccc1OCCCc1c(C)n[nH]c1C | 1.09 µM
47 | CCCCCCCCCCCCN1C(=O)CSC1c1cccnc1 (stereo unspecified) | 5.91 µM
48 | COc1ccc(CN(C)S(=O)(=O)c2ccc3c(c2)OCCO3)cc1 | > 15 µM (inactive)
49 | Cc1c(Cc2ccccc2)c(=O)oc2cc(OCc3ccc(C(=O)O)cc3)ccc12 | 5.9 µM
50 | CCCc1ccc(-c2cc(N)n[nH]2)cc1 | 4.89 µM
51 | Oc1c(N=Nc2ccccn2)ccc2ccccc12 | 2.58 µM
52 | CCCCn1c(O)c(C(CC)=Nc2ccc3c(c2)CCC3)c(=O)[nH]c1=O | 6.01 µM
53 | O=C(COc1ccccc1-c1ccccc1)N/N=C/c1ccc2ccccc2c1 | 6.47 µM
54 | COc1ccc(NS(=O)(=O)c2ccc3nc(COc4cccc5ccccc45)[nH]c3c2)cc1 | 5.97 µM
55 | O=C(N/N=C/c1ccc(-c2ccc(Cl)c(C(=O)O)c2)o1)c1cc2c(ccc3ccccc32)o1 | 4.05 µM
56 | COc1ccccc1/C=C/c1ccc2cccc(O)c2n1 | 1.18 µM
57 | Cc1cc(C(C#N)c2ccc(Cl)cc2)c(Cl)cc1NC(=O)c1cc(I)cc(I)c1O (stereo unspecified) | 0.082 µM
58 | Cc1cc(C)c2nc(NNC(=O)c3ccc(S(=O)(=O)N4CCCC(C)C4)cc3)sc2c1 (stereo unspecified) | 0.297 µM
59 | Oc1c(CN2CCN(c3ccc(F)cc3)CC2)cc(Cl)c2cccnc12 | 1.01 µM
60 | CCN(CC)C(=S)SCC(=O)Nc1nc(-c2ccccc2)c(-c2ccccc2)o1 | 1.26 µM
61 | Cc1ccnc(NS(=O)(=O)c2ccc(NC(=O)c3cc(-c4ccc(Br)cc4)nc4ccccc34)cc2)n1 | 3.34 µM
62 | CCOC(=O)N1CCN(C(=O)c2ccc3c(c2)N(C)C(=O)/C(=C\c2ccc(OCC)c(OC)c2)S3)CC1 | 0.593 µM
63 | O=C(O)c1ccc(CSc2nc(-c3ccc(Cl)cc3)cc(C(F)(F)F)n2)cc1 | 2.69 µM
64 | Cc1cc(O)c(C(C)C)cc1C1(c2cc(C(C)C)c(O)cc2C)OC(=O)c2ccccc21 | 1.8 µM
65 | Cc1cc(=O)oc2c3c(cc(OCC(=O)NC4CC4)c12)OC(C)(C)CC3 | > 15 µM (inactive)
66 | O=[N+]([O-])c1cc(Cl)cc(/C=N\Nc2ccccn2)c1O | 2.89 µM

Row | SMILES | EC50
67 | COC(=O)c1cc(-c2ccc(OC)cc2F)nc2nc(SC)[nH]c(=O)c12 | 2.57 µM
68 | CCOC(=O)c1cccc(NC(=S)N2CCN(c3ncc4c(=O)c(C(=O)O)cn(CC)c4n3)CC2)c1 | 6.28 µM
69 | CCc1ccc(/C=N/n2c(C3CCCCC3)n[nH]c2=S)cc1 | 7.16 µM
70 | Cc1ccc(C(=O)N2CCOCC2)cc1Cl | > 15 µM (inactive)
71 | Cc1nnc(NC(=O)c2ccc(S(=O)(=O)N3CC(C)CC(C)C3)cc2)o1 (stereo unspecified) | 5.82 µM
72 | CCc1ccc2[nH]c(O)c(N=Nc3nc(-c4ccccc4)cs3)c2c1 | 8.8 µM
73 | O=C(N/N=C/c1cc([N+](=O)[O-])ccc1O)/C(=C\c1cccs1)NC(=O)c1ccccc1 | 1.81 µM
74 | CSc1cccc(-c2nnc(NC(=O)c3cccc(N4C(=O)CCC4=O)c3)o2)c1 | 2.04 µM
75 | COc1ccccc1-c1nnc(NC(=O)c2ccc(S(=O)(=O)N(C)CC3CCCO3)cc2)o1 (stereo unspecified) | 8.41 µM
76 | CC(C)c1ccc2c(c1)c(SC(C)(C)C)c(CC(C)(C)C(=O)O)n2Cc1ccc(Cl)cc1 | 0.875 µM
77 | O=C(O)c1ccc(N/N=C/c2ccc(-c3cccc(Cl)c3)o2)cc1 | 6.17 µM
78 | O=[N+]([O-])c1ccc(Cl)cc1Sc1nc2ccccc2o1 | 1.67 µM
79 | Oc1c(Br)cc(Br)cc1CNc1cccc2cccnc12 | 4.47 µM
80 | COc1c(CC=C(C)C)cc(C2CC(=O)c3c(O)cc(O)cc3O2)c(CC=C(C)C)c1O (stereo unspecified) | 1.87 µM
81 | O=C(CSc1nc(N2CCOCC2)nc(N2CCOCC2)n1)Nc1cccc(C(F)(F)F)c1 | > 15 µM (inactive)
82 | COc1ccc(C(CNC(=O)c2cccc(S(=O)(=O)Nc3ccccc3Cl)c2)N2CCOCC2)cc1 (stereo unspecified) | 11.1 µM
83 | COc1ccc(CCNC(=O)CSc2nncn2N)cc1OC | > 15 µM (inactive)
84 | CC(=O)N1CCN(c2ccccc2NC(=O)c2cccs2)CC1 | > 15 µM (inactive)
85 | CC(C)(C)c1ccc(OCC(O)CS(=O)(=O)c2ccccn2)cc1 (stereo unspecified) | > 15 µM (inactive)
86 | Cc1cc(C)c(COc2ccc(/C=N/n3c(C)n[nH]c3=S)cc2)c(C)c1 | 5.33 µM
87 | O=C(Nc1nnc(SCc2ccc(F)cc2)s1)c1ccccn1 | 0.382 µM
88 | COc1ccc(C(=O)NNC(=S)NC(=O)c2ccc(F)cc2)cc1Br | 0.127 µM

Row | SMILES | EC50
89 | O=C(NNC(=S)NC(=O)c1ccccc1)c1ccc(O)cc1 | 2.26 µM
90 | COc1ccc(-c2cn[nH]c2-c2ccc(OCc3ccccc3)cc2O)cc1 | 2.38 µM
91 | CN(C)/C=C(\C=N\OCc1ccc(Cl)cc1Cl)C(=O)Nc1ccc(Cl)c(Cl)c1 | 0.803 µM
92 | C#C[C@]1(O)CC[C@H]2[C@@H]3CCc4cc(OC5CCCC5)ccc4[C@H]3CC[C@@]21C | 2.6 µM
93 | COC(=O)C1=NN(C(=O)c2cccc(Br)c2)C(O)(c2ccc(Cl)cc2)C1 (stereo unspecified) | 1.29 µM
94 | Cc1ccc(C)c(-c2cc(C(=O)Nc3sc(C)c(C)c3C(N)=O)c3ccccc3n2)c1 | 3.55 µM
95 | CCn1c(=O)c(C(=O)NNC(=O)c2ccccc2F)c(O)c2ccccc21 | 3.17 µM
96 | CCc1nnc(NS(=O)(=O)c2ccc(NC(=S)NC(=O)/C=C/c3ccc(C(C)C)cc3)cc2)s1 | 3.11 µM
97 | Cc1cccc(/C=N/NC(=O)Cc2ccc(Cl)cc2)c1O | 3.53 µM
98 | O=C(/C=C/c1cccc([N+](=O)[O-])c1)c1ccc([N+](=O)[O-])o1 | 2.88 µM
99 | CC1Oc2cc3oc4c(O)c5c(cc4c(=O)c3c(O)c2C1(C)C)C=CC(C)(C)O5 (stereo unspecified) | 2.48 µM
100 | CCCc1nc2ccccc2c(=O)n1NC(=O)c1c(O)c2cccc3c2n(c1=O)CCC3 | 2.6 µM
101 | O=C(COc1ccc(Cl)cc1Cl)NNC(=S)NC(=O)c1ccco1 | 0.102 µM
102 | CCOc1ccc(-n2c(C)cc(/C=C3/C(=N)N4C(=NC3=O)SN=C4S(C)(=O)=O)c2C)cc1 | 0.938 µM
103 | O=C(CN1C(=O)S/C(=C\C=C\c2ccccc2)C1=O)Nc1ccccc1C(=O)O | 5.62 µM
104 | OC(COc1ccc2ccccc2c1Br)Cn1cnc(-c2ccccc2)c1 (stereo unspecified) | 5.71 µM
105 | Cc1cccc(NS(=O)(=O)c2ccc(C3CCCCC3)cc2)c1 | 4.82 µM
106 | CCc1ccc(/C=C/c2c([N+](=O)[O-])c(=O)n(C)c(=O)n2C)cc1 | 11 µM
